Here are results for 8 compounds from PubChem BioAssay (NCI).

Some test systems named below: SF-539 CNS; HOP-92 NSCLC; OVCAR-3 ovarian; OVCAR-8 ovarian; HS 578T breast; A549 NSCLC; EKVX NSCLC; ACHN renal; UACC-62 melanoma; HT29 colon; SK-OV-3 ovarian; BT-549 breast; MCF7 breast; NCI-H23 lung; MDA-N; NCI-H226 lung; HL-60(TB) leukemia; LXFL 529 NSCLC; UO-31 renal; HCC-2998 colon.
Common to all, as to assay: inhibition of tumour cell growth, NCI panel, 48 h

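Where inhibition never reached the appropriate level, the endpoint shown equals the highest concentration tested. Otherwise, values were interpolated linearly from a five-concentration, 48-hour dose response in 96-well plates. TGI marks complete inhibition of growth.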 A value given as a limit tells only on which side of the number the result lay.

As to `CCOC(=O)c1cnc(N(C)C)nc1SC(=N)N`, the TGI in the assay with SF-539 CNS, with HOP-92 NSCLC, with OVCAR-3 ovarian, in the assay with OVCAR-8 ovarian, in the assay with HS 578T breast and in the assay with A549 NSCLC was greater than 100 µM each time. Also, the TGI in the assay with EKVX NSCLC, with ACHN renal, with UACC-62 melanoma, in the assay on HT29 colon, with SK-OV-3 ovarian and in the assay on BT-549 breast was greater than 100 µM each time. The TGI in the assay with MCF7 breast, with NCI-H23 lung, in the assay on MDA-N and in the assay on NCI-H226 lung was greater than 100 µM in each case.

On to `C[n+]1cccc(NC(=O)c2ccc(NC(=O)C34CCC(C(=O)Nc5ccc(C(=O)Nc6ccc[n+](C)c6)cc5)(CC3)CC4)cc2)c1`, for which the TGI with SF-539 CNS is greater than 100 µM; in the assay on HOP-92 NSCLC, greater than 100 µM; in the assay on HL-60(TB) leukemia, 9.33 µM; in the assay with OVCAR-8 ovarian it was greater than 100 µM; in the assay on A549 NSCLC, greater than 100 µM; with EKVX NSCLC it was greater than 100 µM. The TGI in the assay with ACHN renal, in the assay on UACC-62 melanoma, in the assay on HT29 colon, with LXFL 529 NSCLC, with NCI-H23 lung and in the assay with NCI-H226 lung was greater than 100 µM in each case.

Turning to `O=C(COc1ccc(Cl)c(Cl)c1)Nc1ccc[n+](Cc2ccc(S(=O)(=O)F)c(Cl)c2)c1`, the TGI in the assay with SF-539 CNS, in the assay with UO-31 renal, with HOP-92 NSCLC, with OVCAR-3 ovarian, in the assay with HL-60(TB) leukemia and with OVCAR-8 ovarian was greater than 100 µM throughout. For the same compound, the TGI in the assay on HS 578T breast, in the assay with A549 NSCLC, with EKVX NSCLC, with ACHN renal, in the assay on UACC-62 melanoma and in the assay on HT29 colon was greater than 100 µM in each case. Besides, the TGI in the assay on SK-OV-3 ovarian, in the assay on BT-549 breast, in the assay on MCF7 breast, in the assay on NCI-H23 lung and with NCI-H226 lung was greater than 100 µM in each case.

Take `Cc1ccc(O)c(Cc2nc3ccccc3nc2-c2cccc(Cl)c2)c1`: the TGI in the assay with SF-539 CNS is greater than 100 µM; in the assay on UO-31 renal, greater than 100 µM; in the assay with HOP-92 NSCLC it was 78.5 µM; in the assay on OVCAR-3 ovarian it was greater than 100 µM; in the assay with HL-60(TB) leukemia, greater than 100 µM; in the assay on OVCAR-8 ovarian, greater than 100 µM. The TGI in the assay on HS 578T breast, in the assay with HCC-2998 colon, with A549 NSCLC, in the assay with EKVX NSCLC, with ACHN renal and in the assay on UACC-62 melanoma was greater than 100 µM in each case. The TGI with HT29 colon, with SK-OV-3 ovarian, in the assay with BT-549 breast, in the assay on MCF7 breast, with NCI-H23 lung and with MDA-N was greater than 100 µM in each case. In the assay on NCI-H226 lung, this compound registered a TGI greater than 100 µM.

`CCCCN1C(=O)C2Cc3c([nH]c4ccccc34)C(c3cccc(O)c3)N2C1=O` (centres undefined): the TGI in the assay on SF-539 CNS was determined as 34.3 µM; with UO-31 renal it was 32.8 µM; in the assay with HOP-92 NSCLC it was 33.8 µM; in the assay with OVCAR-3 ovarian, 30.2 µM; in the assay on HL-60(TB) leukemia it was 46.2 µM; with OVCAR-8 ovarian it was 33.2 µM. Also, the TGI with HS 578T breast stood at 69.1 µM; with HCC-2998 colon, 34.2 µM; with A549 NSCLC, 35 µM; in the assay on EKVX NSCLC it was 31.9 µM; in the assay on ACHN renal, 34.1 µM; in the assay on UACC-62 melanoma, 32.3 µM. In addition, the TGI in the assay on HT29 colon amounted to 35.7 µM; in the assay with SK-OV-3 ovarian, 30 µM; in the assay with BT-549 breast, 34.2 µM; in the assay with MCF7 breast, 36.2 µM; in the assay with NCI-H23 lung, 37.9 µM; with MDA-N, 36.3 µM. In the assay with NCI-H226 lung, this compound came in with a TGI of 42.3 µM.

Turning to `O=C(CSCC(=O)N/N=C/c1ccc2c(c1)OCO2)N/N=C/c1ccc2c(c1)OCO2`, the TGI with SF-539 CNS, with UO-31 renal, with HOP-92 NSCLC, with OVCAR-3 ovarian, in the assay with HL-60(TB) leukemia and with OVCAR-8 ovarian was greater than 100 µM in each case. The TGI in the assay with HS 578T breast, in the assay with HCC-2998 colon, in the assay with A549 NSCLC, in the assay with EKVX NSCLC, in the assay with ACHN renal and with UACC-62 melanoma was greater than 100 µM each time. Moreover, the TGI in the assay with HT29 colon, in the assay on SK-OV-3 ovarian, in the assay with BT-549 breast, in the assay with MCF7 breast, with NCI-H23 lung and in the assay on NCI-H226 lung was greater than 100 µM throughout.

As for `C[C@H]1C[C@@H]2[C@H]([C@@H](O)C[C@@]3(C)[C@H]2CC[C@]3(O)C(=O)CO)[C@@]2(C)C=CC(=O)C=C12`, the TGI in the assay with UO-31 renal, with HOP-92 NSCLC, with OVCAR-3 ovarian, with HL-60(TB) leukemia, in the assay with OVCAR-8 ovarian and with HCC-2998 colon was greater than 100 µM throughout. In addition, the TGI with A549 NSCLC, with ACHN renal, in the assay on UACC-62 melanoma, with HT29 colon, in the assay on SK-OV-3 ovarian and with NCI-H23 lung was greater than 100 µM throughout. The same compound returned a TGI with NCI-H226 lung greater than 100 µM.

As for `c1ccc2c(CSCc3cccc4ccccc34)cccc2c1`, the TGI in the assay on UO-31 renal, in the assay with HOP-92 NSCLC, in the assay with OVCAR-3 ovarian, in the assay on OVCAR-8 ovarian, in the assay with HS 578T breast and with HCC-2998 colon was greater than 100 µM throughout. Besides, the TGI with A549 NSCLC, in the assay on EKVX NSCLC, in the assay with ACHN renal, in the assay with UACC-62 melanoma, in the assay on HT29 colon and with BT-549 breast was greater than 100 µM in each case. Further, the TGI in the assay with NCI-H23 lung, in the assay with MDA-N and in the assay with NCI-H226 lung was greater than 100 µM throughout.
